In the assay the test system is cat flea (Ctenocephalides felis). Nature of the assay: Test D: cat flea membrane feeding on treated bovine blood. It counts as in vivo. The following applies: 72 h. How it is done: For evaluating control of the cat flea (Ctenocephalides felis), a test compound was solubilized in propylene glycol/glycerol formal (60:40) and then diluted in bovine blood to a final test rate of 30 ppm. The treated blood was placed in a tube, and the bottom of the tube was covered with a membrane. Approximately 10 adult cat fleas were allowed to feed through the membrane on the treated blood. The adult fleas were then evaluated for mortality 72 hours later.

The text below walks through data of patent US11278533B2, “Animal pest control method” (E.I. DU PONT DE NEMOURS AND COMPANY, priority 2007, dated 2022).

SMILES strings stand for the structures.

Regarding `Cc1cc(C2=NOC(c3cc(Cl)cc(Cl)c3)(C(F)(F)F)C2)ccc1C(=O)NCc1ccccn1` (centres unmarked) [Compound 1, 4-[5-(3,5-dichlorophenyl)-4,5-dihydro-5-(trifluoromethyl)-3-isoxazolyl]-2-methyl-N-(2-pyridinylmethyl)benzamide], the mortality at 30 ppm was not below 50%.

As for `CSCCNC(=O)c1ccc(C2=NOC(c3cc(Cl)cc(Cl)c3)(C(F)(F)F)C2)cc1C` (centres unmarked) [Compound 2, 4-[5-(3,5-dichlorophenyl)-4,5-dihydro-5-(trifluoromethyl)-3-isoxazolyl]-2-methyl-N-[2-(methylthio)ethyl]benzamide], the mortality at 30 ppm is not below 50%.

Molecule `Cc1cc(C2=NOC(c3cc(Cl)cc(Cl)c3)(C(F)(F)F)C2)ccc1C(=O)NCC(=O)NCC(F)(F)F` (centres unmarked) [Compound 3, 4-[5-(3,5-dichlorophenyl)-4,5-dihydro-5-(trifluoromethyl)-3-isoxazolyl]-2-methyl-N-[2-oxo-2-[(2,2,2-trifluoroethyl)amino]ethyl]benzamide] displayed a mortality at 30 ppm not below 50%.

As to `Cc1cc(C2=NOC(c3cc(Cl)cc(Cl)c3)(C(F)(F)F)C2)ccc1C(=O)NCC[S+](C)[O-]` (centres unmarked) [Compound 5, 4-[5-(3,5-dichlorophenyl)-4,5-dihydro-5-(trifluoromethyl)-3-isoxazolyl]-2-methyl-N-[2-(methylsulfinyl)ethyl]benzamide], the mortality at 30 ppm is not below 50%. As for `Cc1cc(C2=NOC(c3cc(Cl)cc(Cl)c3)(C(F)(F)F)C2)ccc1C(=O)NCCS(C)(=O)=O` (centres unmarked) [Compound 6, 4-[5-(3,5-dichlorophenyl)-4,5-dihydro-5-(trifluoromethyl)-3-isoxazolyl]-2-methyl-N-[2-(methylsulfonyl)ethyl]benzamide], the figure is not below 50%.
